Source: patent US10662146B2, “Prodrugs of fencamfamine” (Praxis Bioresearch, LLC, priority 2015, dated 2020)
Values joined by “and” are separate entries in the source; they are usually repeats but may differ in a detail not shown here. Identical values can stand only once. Like-named read-outs stand apart in the source and are kept apart here.

Assay: Single dose intravenous PK study in male Sprague Dawley rats (plasma by LC-MS/MS)
Assay type: in vivo
Details: for Plasma concentration of PRX-002 (−) Isomer: PRX-002 (−) Isomer IV 2 mg/kg b.w.
Protocol: We describe here PK results of prodrugs of PRX-002 (−) or (+) isomers. All doses of prodrugs were administered such that they were equivalent to 5 mg/kg of PRX-002 (−) or (+) for oral studies and 2 mg/kg PRX-002 (−) or (+) for intravenous studies in male Sprague-Dawley (MSD) rats. Higher doses of up to 10 or 15 mg/kg [again equivalent to PRX-002 (−)] were used in some studies (as specified)]. Formulation preparation, dose administration and time of sample collection was as follows.
(§1) Adult male Sprague Dawley Rats aged 8-10 weeks were used for the study. Animals were administered the test item by Intravenous bolus route with a dose of 2 mg/kg body weight at dose volume of 5.0 mL/kg body weight. Under mild isoflurane anesthesia, blood specimens were collected by retro-orbital puncture method using capillary tubes into pre-labeled tubes containing anticoagulant (K2EDTA-2 mg/mL blood) during the next 24 hours of post dose as mentioned in below table. For blood sampling at multiple time points, right and left eyes were used alternatively for blood collection. Collected blood specimens were centrifuged at 4000 rpm, 4° C. for 10 minutes and plasma were separated and stored at −80° C. until analysis.
Blood was collected as outlined in Table 39.2 (IV).
Test item PRX-P4-003 was weighed and transferred to a graduated tube. Then 600 μL of PEG 400 (v/v) was added and vortex mixed thoroughly until the test item was completely dissolved. Then 1.800 mL of Hydroxypropyl-β-cyclodextrin (HPβCD, 50% w/v) was added and vortex mixed thoroughly. The final volume was then made up to 3.600 mL with sterile water for injection (SWFI, v/v) with final formulation strength of 5.16 mgA/mL. […] This formulation was freshly prepared before the administration to animals.
as §1, with “administered with a PRX-P4-003” for “administered the test item”, “of 10” for “of 2”, “of 5” for “of 5.0”
Test item PRX-P5-006 was weighed and transferred to a graduated tube. Then 500 μL of DMSO (v/v) was added vortex mixed thoroughly until the test item was completely dissolved. Then 4000 μL of Hydroxypropyl-β-cyclodextrin (HPβCD, 50% w/v) was added and vortex mixed thoroughly. Then 2500 μL of PEG 400 (v/v) was added and vortex mixed thoroughly. The final volume was then made up to 10000 μL with sterile water for injection (SWFI, v/v) with final formulation strength of 3.97 mg/mL. […] This formulation was freshly prepared before the administration to animals.
as §1, with “administered with a PRX-P5-006” for “administered the test item”, “of 15” for “of 2”, “of 10” for “of 5.0”
The plasma concentrations of fencamfamine were measured by LC-MS/MS over time. […] The release of fencamfamine from the prodrugs varied depending on the chain length of the fatty acid linkers attached to fencamfamine. […]

Compound: CCCCCCCCCCCCCCCCCC(=O)OC(C)OC(=O)N(CC)C1C2CCC(C2)C1c1ccccc1 (single isomer, unassigned) [PRX-P5-011, N-(1-Octadecanoyloxyethoxycarbonyl)-(+)-N-ethyl-3-phenylbicyclo[2.2.1]heptan-2-amine]
- Plasma concentration of PRX-P5-011 (PRX-P5-011 IV 2 mg/kg b.w., 0.08 h, individual animals, 2 mg/kg): 114.77 ng/mL and 37.09 ng/mL and 179.14 ng/mL
- Plasma concentration of PRX-P5-011 (PRX-P5-011 IV 2 mg/kg b.w., 0.25 h, individual animals, 2 mg/kg): 56.47 ng/mL and 17.98 ng/mL and 101.04 ng/mL
- Plasma concentration of PRX-P5-011 (PRX-P5-011 IV 2 mg/kg b.w., 0.50 h, individual animals): 0.00 ng/mL
- Plasma concentration of PRX-P5-011 (PRX-P5-011 IV 2 mg/kg b.w., 1.00 h, individual animals): 0.00 ng/mL
- Plasma concentration of PRX-P5-011 (PRX-P5-011 IV 2 mg/kg b.w., 2.00 h, individual animals): 0.00 ng/mL
- Plasma concentration of PRX-P5-011 (PRX-P5-011 IV 2 mg/kg b.w., 4.00 h, individual animals): 0.00 ng/mL
- Plasma concentration of PRX-P5-011 (PRX-P5-011 IV 2 mg/kg b.w., 6.00 h, individual animals): 0.00 ng/mL
- Plasma concentration of PRX-P5-011 (PRX-P5-011 IV 2 mg/kg b.w., 24.00 h, individual animals): 0.00 ng/mL
- concentration at 0.08 h (male, Sprague-Dawley, rat, plasma, iv, 2 mg/kg, PRX-P5-011 IV 2 mg/kg b.w., 0.08 h, mean): 110 ng/mL
- concentration at 0.25 h (male, Sprague-Dawley, rat, plasma, iv, 2 mg/kg, PRX-P5-011 IV 2 mg/kg b.w., 0.25 h, mean): 58.5 ng/mL
- concentration at 0.5 h (male, Sprague-Dawley, rat, plasma, iv, 2 mg/kg, PRX-P5-011 IV 2 mg/kg b.w., 0.50 h, individual animals): 0 ng/mL
- concentration at 0.5 h (male, Sprague-Dawley, rat, plasma, iv, 2 mg/kg, PRX-P5-011 IV 2 mg/kg b.w., 0.50 h, mean): 0 ng/mL
- concentration at 1 h (male, Sprague-Dawley, rat, plasma, iv, 2 mg/kg, PRX-P5-011 IV 2 mg/kg b.w., 1.00 h, individual animals): 0 ng/mL
- concentration at 1 h (male, Sprague-Dawley, rat, plasma, iv, 2 mg/kg, PRX-P5-011 IV 2 mg/kg b.w., 1.00 h, mean): 0 ng/mL
- concentration at 2 h (male, Sprague-Dawley, rat, plasma, iv, 2 mg/kg, PRX-P5-011 IV 2 mg/kg b.w., 2.00 h, individual animals): 0 ng/mL
- concentration at 2 h (male, Sprague-Dawley, rat, plasma, iv, 2 mg/kg, PRX-P5-011 IV 2 mg/kg b.w., 2.00 h, mean): 0 ng/mL
- concentration at 4 h (male, Sprague-Dawley, rat, plasma, iv, 2 mg/kg, PRX-P5-011 IV 2 mg/kg b.w., 4.00 h, individual animals): 0 ng/mL
- concentration at 4 h (male, Sprague-Dawley, rat, plasma, iv, 2 mg/kg, PRX-P5-011 IV 2 mg/kg b.w., 4.00 h, mean): 0 ng/mL
- concentration at 6 h (male, Sprague-Dawley, rat, plasma, iv, 2 mg/kg, PRX-P5-011 IV 2 mg/kg b.w., 6.00 h, individual animals): 0 ng/mL
- concentration at 6 h (male, Sprague-Dawley, rat, plasma, iv, 2 mg/kg, PRX-P5-011 IV 2 mg/kg b.w., 6.00 h, mean): 0 ng/mL
- concentration at 24 h (male, Sprague-Dawley, rat, plasma, iv, 2 mg/kg, PRX-P5-011 IV 2 mg/kg b.w., 24.00 h, individual animals): 0 ng/mL
- concentration at 24 h (male, Sprague-Dawley, rat, plasma, iv, 2 mg/kg, PRX-P5-011 IV 2 mg/kg b.w., 24.00 h, mean): 0 ng/mL

Compound: CCN[C@H]1[C@H]2CC[C@H](C2)[C@@H]1c1ccccc1 [PRX-002 (+) Isomer, (1S,2S,3R,4R)—N-Ethyl-3-phenylbicyclo[2.2.1]heptan-2-amine, reference compound]
- AUC(0-inf) (male, Sprague Dawley, rat, plasma, iv, 2 mg/kg, single IV dose 2 mg/kg b.w., mean plasma PK parameters (Table 39.27), read-out: AUCinf): 268 ± 23.5 ng·h/mL
- AUC(0-t) (male, Sprague Dawley, rat, plasma, iv, 2 mg/kg, single IV dose 2 mg/kg b.w., mean plasma PK parameters (Table 39.27), read-out: AUClast): 250 ± 15.2 ng·h/mL
- C0 (male, Sprague Dawley, rat, plasma, iv, 2 mg/kg, single IV dose 2 mg/kg b.w., mean plasma PK parameters (Table 39.27), read-out: C0): 291 ± 61.8 ng/mL
- clearance (male, Sprague Dawley, rat, plasma, iv, 2 mg/kg, single IV dose 2 mg/kg b.w., mean plasma PK parameters (Table 39.27), read-out: CL): 125 ± 10.6 mL/min/kg
- Cmax (male, Sprague Dawley, rat, plasma, iv, 2 mg/kg, single IV dose 2 mg/kg b.w., mean plasma PK parameters (Table 39.27), read-out: Cmax): 234 ± 37.9 ng/mL
- MRT last (male, Sprague Dawley, rat, plasma, iv, 2 mg/kg, single IV dose 2 mg/kg b.w., mean plasma PK parameters (Table 39.27), read-out: MRTlast): 1.05 ± 0.071 h
- half-life (male, Sprague Dawley, rat, plasma, iv, 2 mg/kg, single IV dose 2 mg/kg b.w., mean plasma PK parameters (Table 39.27), read-out: T1/2 (converted)): 1.08 ± 0.152 h
- Vd (male, Sprague Dawley, rat, plasma, iv, 2 mg/kg, single IV dose 2 mg/kg b.w., mean plasma PK parameters (Table 39.27), read-out: Vss): 10.1 ± 0.51 L/kg
- Tmax (male, Sprague Dawley, rat, single IV dose 2 mg/kg b.w., mean plasma PK parameters (Table 39.27), read-out: Tmax): 4.8 min
- AUCextrap (single IV dose 2 mg/kg b.w., mean plasma PK parameters (Table 39.27)): 6.639 ± 2.427%

Compound: CCN[C@@H]1[C@@H]2CC[C@@H](C2)[C@H]1c1ccccc1 [PRX-002 (−) Isomer, (1R,2R,3S,4S)—N-Ethyl-3-phenylbicyclo[2.2.1]heptan-2-amine, reference compound]
- Plasma concentration of PRX-002 (−) Isomer (0.08 h, mean): 142.01
- Plasma concentration of PRX-002 (−) Isomer (0.25 h, mean): 112.59
- Plasma concentration of PRX-002 (−) Isomer (0.50 h, mean): 81.21
- Plasma concentration of PRX-002 (−) Isomer (1.00 h, mean): 58.82
- Plasma concentration of PRX-002 (−) Isomer (2.00 h, mean): 53.05
- Plasma concentration of PRX-002 (−) Isomer (4.00 h, mean): 16.55
- Plasma concentration of PRX-002 (−) Isomer (6.00 h, mean): 0.00
- Plasma concentration of PRX-002 (−) Isomer (24.00 h, mean): 0.00
- AUC% extrap of PRX-002 (−) Isomer (PRX-002 (−) Isomer IV 2 mg/kg, mean): 14.056 ± 5.0710%
- AUC(0-inf) (male, Sprague Dawley, rat, plasma, iv, 2 mg/kg, PRX-002 (−) Isomer IV 2 mg/kg, mean, read-out: AUCinf of PRX-002 (−) Isomer): 256 ± 44.3 ng·h/mL
- AUC(0-t) (male, Sprague Dawley, rat, plasma, iv, 2 mg/kg, PRX-002 (−) Isomer IV 2 mg/kg, mean, read-out: AUClast of PRX-002 (−) Isomer): 219 ± 23.9 ng·h/mL
- clearance (male, Sprague Dawley, rat, plasma, iv, 2 mg/kg, PRX-002 (−) Isomer IV 2 mg/kg, mean, read-out: CL of PRX-002 (−) Isomer): 133 ± 21 mL/min/kg
- Cmax (male, Sprague Dawley, rat, plasma, iv, 2 mg/kg, PRX-002 (−) Isomer IV 2 mg/kg, mean, read-out: Cmax of PRX-002 (−) Isomer): 143 ± 1.75 ng/mL
- MRT last (male, Sprague Dawley, rat, plasma, iv, 2 mg/kg, PRX-002 (−) Isomer IV 2 mg/kg, mean, read-out: MRTlast of PRX-002 (−) Isomer): 1.33 ± 0.118 h
- half-life (male, Sprague Dawley, rat, plasma, iv, 2 mg/kg, PRX-002 (−) Isomer IV 2 mg/kg, mean, read-out: T1/2 of PRX-002 (−) Isomer (converted)): 1.51 ± 0.223 h
- Vd (male, Sprague Dawley, rat, plasma, iv, 2 mg/kg, PRX-002 (−) Isomer IV 2 mg/kg, mean, read-out: Vss of PRX-002 (−) Isomer): 15.7 ± 0.339 L/kg
- Tmax (male, Sprague Dawley, rat, plasma, PRX-002 (−) Isomer IV 2 mg/kg, mean, read-out: Tmax of PRX-002 (−) Isomer): 8.22 ± 5.88 min
